From patent US7968522B2, “Treatment and prophylaxis of sepsis and septic shock” (Polytechnic Institute of NYU, priority 2003, dated 2011)
Entries after “also recorded” stand apart in the source; their conditions may differ.

System: RAW 264.7 cells
Test: LPS-induced NO production (nitrite, Griess reaction) in mouse macrophages
Format: cell-based
Conditions: for effect on LPS-induced NO production: varying concentrations, added 1.5 h before, after or simultaneously with LPS
Description: As nitric oxide production is a useful marker of macrophage response to bacterial LPS, the in vitro model system is a valuable tool for examining the modulating effects of sophorolipids on LPS-induced macrophage responses under controlled conditions. Mouse macrophages (RAW 264.7, ATCC) were incubated in the presence of LPS (Salmonella typhimurium, Sigma #6511) (50 ng/ml, an optimal dose for inducing NO production), and varying concentrations of sophorolipids (SL, natural mixture), sophorolipid diethyl ester (E), and corresponding sophorolipid diacetate (K). Sophorolipids were added 1.5 hours before, 1.5 hours after, or simultaneously with LPS. Aliquots of culture supernatants were collected after 5 days and NO content was determined by measuring nitrite (modified Griess reaction). Briefly, triplicate 50 μl aliquots of the culture supernatant were mixed in wells of a 96-well microtiter plate with 100 μl of Griess reagent containing a 1:1 (vol/vol) mixture of 1% (wt/vol) sulfanilamide in 30% acetic acid and 0.5% (wt/vol) of N-(-1-Naphthyl)ethylenediamine dihydrochloride in 60% acetic acid. Chromophore generated by the reaction with nitrite was detected spectrophotometrically (550 nm) using a microtiterplate reader (ELx 800, BioTek Instruments, Winooski, Vt.). The concentration of nitrite was calculated by using calibration with known concentrations of NaNO2.
This in vitro model system made it possible to examine in detail the effects of sophorolipids on LPS induced NO production as a marker of the acute inflammatory pathway that leads to septic shock in vivo. NO production appeared to depend on the sequence of addition of sophorolipids relative to LPS. The in vitro effects were most pronounced when sophorolipids were introduced either before or simultaneously with LPS.

SMILES	rating of the potency of inhibitory activities on LPS induced NO production (RAW 264.7 cells, LPS 50 ng/ml)	inhibition of LPS-induced NO production (plateau / maximum) (at 25 ng/ml, LPS 50 ng/ml, RAW 264.7 cells, supernatants after 5 days)	effect on LPS-induced NO production
CCOC(=O)CCCCCCC/C=C\CCCCCCC(C)O[C@@H]1O[C@H](CO)[C@@H](O)[C@H](O)[C@H]1O[C@@H]1O[C@H](CO)[C@@H](O)[C@H](O)[C@H]1O (relative stereo) [E, Ethyl 17-L-[(2′-O-β-D-glucopyranosyl-β-D-glucopyranosyl)-oxy]-cis-9-octadecenoate]	E>SL>K; also recorded: least inhibitory and the most variable effects	60-65%	inhibited LPS-induced NO production in a dose- and time-dependent manner
CCOC(=O)CCCCCCC/C=C\CCCCCCC(C)O[C@@H]1O[C@H](COC(C)=O)[C@@H](O)[C@H](O)[C@H]1O[C@@H]1O[C@H](COC(C)=O)[C@@H](O)[C@H](O)[C@H]1O (relative stereo) [K, Ethyl 17-L[(2′-O-β-D glucopyranosyl-β-D-glucopyranosyl)-oxy]-cis-9-octadecenoate 6′,6″-diacetate]	E>SL>K		inhibited LPS-induced NO production in a dose- and time-dependent manner
